Values after ≈ are worked out from the molar mass of the structure shown. Like-named read-outs stand apart in the source and are kept apart here.
Assays:
26 cell lines = test: 26 cell line growth inhibition screen, sulforhodamine stain; format: cell-based; conditions: 26 cell lines, 48 hour drug treatment, sulforhodamine stain
CCRF-CEM cells = test: G2/M arrest; format: cell-based; conditions: minimum concentration that results in 60% of CCRF-CEM cells to arrest in G2-M
HL-60(TB) = test: cells; conditions: Homo sapiens, HL-60, 48 h, read-out: Log10 GI50 (converted)
LOX-IMVI = test: cells; conditions: Homo sapiens, 48 h, read-out: Log10 GI50 (converted)
CCRF-CEM = test: SRB cytotoxicity screening assay (Leukemia); conditions: for Log10 TGI: CCRF-CEM (Leukemia), PG=0, 48 hour incubation
IGR-OV1 = test: SRB cytotoxicity screening assay (Ovarian)
OVCAR-3 = test: SRB cytotoxicity screening assay (Ovarian)
OVCAR-4 = test: SRB cytotoxicity screening assay (Ovarian)
OVCAR-6 = test: SRB cytotoxicity screening assay (Ovarian); conditions: 48 h
UACC-62 = test: SRB cytotoxicity screening assay (Melanoma)
SF-539 = test: SRB cytotoxicity screening assay (CNS Cancer); conditions: Homo sapiens, SF-539, 48 h, read-out: Log10 GI50 (converted)
U251 = test: SRB cytotoxicity screening assay (CNS Cancer)
COLO 205 = test: SRB cytotoxicity screening assay (Colon Cancer); conditions: Homo sapiens, COLO 205, 48 h, read-out: Log10 GI50 (converted)
786-0 = test: SRB cytotoxicity screening assay (Renal Cancer)
A498 = test: SRB cytotoxicity screening assay (Renal Cancer); conditions: Homo sapiens, A498, 48 h
SN12C = test: SRB cytotoxicity screening assay (Renal Cancer); conditions: Homo sapiens, SN12C, 48 h
UO-31 = test: SRB cytotoxicity screening assay (Renal Cancer); conditions: Homo sapiens, UO-31, 48 h
MDA-MB-231/ATCC = test: SRB cytotoxicity screening assay (Breast Cancer)
PC-3 = test: SRB cytotoxicity screening assay (Prostate Cancer)
DU-145 = test: SRB cytotoxicity screening assay (Prostate Cancer)
HOP-62 = test: SRB cytotoxicity screening assay (Non-Small Cell Lung Cancer)
NCI-H226 = test: as above; conditions: Homo sapiens, NCI-H226, 48 h, read-out: Log10 LC50 (converted)
NCI-H460 = test: as above; conditions: NCI-H460 (Non-Small Cell Lung Cancer); PG=0; 48 hour incubation
NCI-H522 = test: as above; conditions: NCI-H522 (Non-Small Cell Lung Cancer); PG=0; 48 hour incubation
[1] = tested on: cell line panel (60 lines, nine disease-related subpanels); test: SRB cytotoxicity screening assay, whole cell line panel (mean values)
[2] = read-out: Log10 GI50 (converted)
[3] = read-out: Log10 LC50 (converted)

Structure (SMILES): CC(=O)O[C@H]1C(=O)[C@@]2(C)[C@H]([C@H](OC(=O)c3ccccc3)[C@]3(O)C[C@H](OC(=O)[C@H](O)[C@@H](NC(=O)c4ccccc4)c4ccccc4)C(C)=C1C3(C)C)[C@]1(OC(C)=O)CO[C@@H]1C[C@@H]2O [Paclitaxel, paclitaxel, reference compound]
- IC50 (26 cell lines; read-out: Mean IC50 (26 cell line Mean Growth inhibition IC50 value)): 0.02 µg/mL (≈ 0.0234 µM)
- IC50 (26 cell lines; read-out: Min IC50 (lowest observed IC50 value in 26 cell line screen)): 0.001 µg/mL (≈ 0.00117 µM)
- G2/M arrest MED (CCRF-CEM cells): 0.025 µg/mL
- GI50 (HL-60(TB)): 0.00269 nM
- GI50 (LOX-IMVI): 0.00158 nM
- Log10 TGI (CCRF-CEM): >−4.00 molar
- Log10 TGI (CCRF-CEM; listed as paclitaxel): greater than −4.00 molar
- GI50 (CCRF-CEM; Homo sapiens, CCRF-CEM, 48 h, read-out: Log10 GI50 (converted)): 0.00245 nM
- GI50 (IGR-OV1; Homo sapiens, IGROV-1, 48 h, read-out: Log10 GI50 (converted)): 2.45 nM
- Log10 TGI (IGR-OV1; IGR-OV1 (Ovarian), PG=0, 48 hour incubation): −4.19 molar
- GI50 (OVCAR-3; Homo sapiens, OVCAR-3, 48 h, read-out: Log10 GI50 (converted)): 0.0398 nM
- Log10 TGI (OVCAR-3; OVCAR-3 (Ovarian), PG=0, 48 hour incubation): −4.55 molar
- GI50 (OVCAR-4; Homo sapiens, OVCAR-4, 48 h, read-out: Log10 GI50 (converted)): 1580 nM
- Log10 TGI (OVCAR-4; OVCAR-4 (Ovarian), PG=0, 48 hour incubation): −4.19 molar
- GI50 (OVCAR-6; [2]): 0.0178 nM
- CC50 (OVCAR-6; [3]): > 100000 nM
- GI50 (UACC-62; Homo sapiens, UACC-62, 48 h, read-out: Log10 GI50 (converted)): 0.0347 nM
- Log10 TGI (UACC-62; UACC-62 (Melanoma), PG=0, 48 hour incubation): −4.71 molar
- GI50 (SF-539): 0.00813 nM
- GI50 (U251; Homo sapiens, U-251, 48 h, read-out: Log10 GI50 (converted)): 0.00513 nM
- Log10 TGI (U251; U251 (CNS Cancer), PG=0, 48 hour incubation): −4.32 molar
- GI50 (COLO 205): 0.00851 nM
- Log10 TGI (786-0; 786-0 (Renal Cancer), PG=0, 48 hour incubation): >−4.00 molar
- GI50 (786-0; Homo sapiens, 786-0, 48 h, read-out: Log10 GI50 (converted)): 9.77 nM
- CC50 (786-0; Homo sapiens, 786-0, 48 h, read-out: Log10 LC50 (converted)): > 100000 nM
- GI50 (A498; [2]): 72.4 nM
- CC50 (A498; [3]): 74100 nM
- GI50 (SN12C; [2]): 0.295 nM
- CC50 (SN12C; [3]): > 100000 nM
- GI50 (UO-31; [2]): 813 nM
- CC50 (UO-31; [3]): > 100000 nM
- GI50 (MDA-MB-231/ATCC; Homo sapiens, MDA-MB-231, 48 h, read-out: Log10 GI50 (converted)): 2.88 nM
- CC50 (MDA-MB-231/ATCC; Homo sapiens, MDA-MB-231, 48 h, read-out: Log10 LC50 (converted)): 51300 nM
- Log10 TGI (MDA-MB-231/ATCC; MDA-MB-231/ATCC (Breast Cancer), PG=0, 48 hour incubation): −4.84 molar
- GI50 (PC-3; Homo sapiens, PC-3, 48 h, read-out: Log10 GI50 (converted)): 0.0141 nM
- CC50 (PC-3; Homo sapiens, PC-3, 48 h, read-out: Log10 LC50 (converted)): > 100000 nM
- Log10 TGI (PC-3; PC-3 (Prostate Cancer), PG=0, 48 hour incubation): >−4.00 molar
- Log10 TGI (DU-145; DU-145 (Prostate Cancer), PG=0, 48 hour incubation): >−4.00 molar
- GI50 (DU-145; Homo sapiens, DU-145, 48 h, read-out: Log10 GI50 (converted)): 0.417 nM
- CC50 (DU-145; Homo sapiens, DU-145, 48 h, read-out: Log10 LC50 (converted)): > 100000 nM
- Log10 TGI (HOP-62; HOP-62 (Non-Small Cell Lung Cancer), PG=0, 48 hour incubation): −4.80 molar
- GI50 (HOP-62; Homo sapiens, HOP-62, 48 h, read-out: Log10 GI50 (converted)): 0.214 nM
- CC50 (HOP-62; Homo sapiens, HOP-62, 48 h, read-out: Log10 LC50 (converted)): 89100 nM
- CC50 (NCI-H226): > 100000 nM
- Log10 TGI (NCI-H460): −4.92 molar
- Log10 TGI (NCI-H522): −11.20 molar
- Log10 TGI, MG_MID ([1]; mean value over the cell line panel): −4.54 molar
- GI50 ([1]; read-out: Log10 GI50, MG_MID (converted)): 0.0708 nM
- CC50 ([1]; read-out: Log10 LC50, MG_MID (converted)): 87100 nM
